From US20030073850A1, “4-Imidazole derivatives of benzyl and restricted benzyl sulfonamides, sulfamides, ureas, carbamates, and amides and their use” (priority 1998, published 2003) come the findings set out here.

For orientation: Ki means the equilibrium dissociation constant of an inhibitor or competing ligand from its target. As a reminder, the melting point is the temperature of the solid-liquid transition.

Data set [1] addresses T1, α1b (hamster receptor expressed in mouse fibroblasts) (Mesocricetus auratus, UniProt P18841).
T1 construct: expressed in transfected cells; host or cells: mouse fibroblasts
T1 sequence (P18841 1-515): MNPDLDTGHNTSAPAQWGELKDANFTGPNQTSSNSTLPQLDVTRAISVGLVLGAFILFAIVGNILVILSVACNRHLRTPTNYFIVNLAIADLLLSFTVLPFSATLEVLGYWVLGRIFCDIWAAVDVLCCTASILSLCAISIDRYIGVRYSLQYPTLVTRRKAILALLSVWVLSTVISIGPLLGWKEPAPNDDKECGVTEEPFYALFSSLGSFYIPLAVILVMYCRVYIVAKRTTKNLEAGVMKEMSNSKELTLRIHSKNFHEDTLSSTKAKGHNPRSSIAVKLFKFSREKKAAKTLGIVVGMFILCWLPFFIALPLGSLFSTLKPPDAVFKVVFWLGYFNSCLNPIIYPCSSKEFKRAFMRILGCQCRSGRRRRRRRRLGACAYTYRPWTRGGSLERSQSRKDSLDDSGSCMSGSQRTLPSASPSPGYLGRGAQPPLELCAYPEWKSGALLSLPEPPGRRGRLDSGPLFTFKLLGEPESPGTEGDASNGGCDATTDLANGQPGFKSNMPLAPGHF
The data set can be described thus: Radioligand binding, [3H]-prazosin, α1b. The conditions noted are these: hamster receptor expressed in mouse fibroblasts, [3H]-prazosin; read-out: Radioligand Binding Ki α1b (Hamster). Summed up:
(§1)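 [3H]-prazosin radioligand displacement; α1A from rat submaxillary gland tissue, α1b hamster and α1d rat receptors each expressed in mouse fibroblasts.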

Data set [2] addresses T2, α1d (rat receptor expressed in mouse fibroblasts) (Rattus norvegicus, UniProt P23944).
T2 construct: expressed in transfected cells; host or cells: mouse fibroblasts
T2 sequence (P23944 1-561): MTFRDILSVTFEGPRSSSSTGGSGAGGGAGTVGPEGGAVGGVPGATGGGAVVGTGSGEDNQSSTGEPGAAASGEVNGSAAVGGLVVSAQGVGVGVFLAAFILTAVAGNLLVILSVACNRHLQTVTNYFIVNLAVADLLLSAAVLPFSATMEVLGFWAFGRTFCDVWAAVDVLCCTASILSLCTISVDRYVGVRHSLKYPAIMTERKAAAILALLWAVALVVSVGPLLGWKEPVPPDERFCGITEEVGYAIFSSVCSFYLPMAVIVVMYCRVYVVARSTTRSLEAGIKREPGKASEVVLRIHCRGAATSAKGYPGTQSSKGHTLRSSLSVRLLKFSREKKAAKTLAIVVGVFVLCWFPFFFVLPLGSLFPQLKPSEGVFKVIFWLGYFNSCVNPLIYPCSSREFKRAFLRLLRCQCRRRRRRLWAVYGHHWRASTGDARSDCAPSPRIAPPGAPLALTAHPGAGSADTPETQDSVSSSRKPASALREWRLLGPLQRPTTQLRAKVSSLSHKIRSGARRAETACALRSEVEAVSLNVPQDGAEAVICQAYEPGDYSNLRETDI
The data set can be described thus: Radioligand binding, [3H]-prazosin, α1d. The conditions noted are these: rat receptor expressed in mouse fibroblasts, [3H]-prazosin; read-out: Radioligand Binding Ki α1d (Rat). In short, it runs like this: as §1

For a further data set, the target named is T3, α1B (rat spleen) (Rattus norvegicus, UniProt P15823).
T3 construct: α1B (rat spleen) and α1D (rat aorta) receptors; from tissue; host or cells: rat spleen
T3 sequence (P15823 1-515): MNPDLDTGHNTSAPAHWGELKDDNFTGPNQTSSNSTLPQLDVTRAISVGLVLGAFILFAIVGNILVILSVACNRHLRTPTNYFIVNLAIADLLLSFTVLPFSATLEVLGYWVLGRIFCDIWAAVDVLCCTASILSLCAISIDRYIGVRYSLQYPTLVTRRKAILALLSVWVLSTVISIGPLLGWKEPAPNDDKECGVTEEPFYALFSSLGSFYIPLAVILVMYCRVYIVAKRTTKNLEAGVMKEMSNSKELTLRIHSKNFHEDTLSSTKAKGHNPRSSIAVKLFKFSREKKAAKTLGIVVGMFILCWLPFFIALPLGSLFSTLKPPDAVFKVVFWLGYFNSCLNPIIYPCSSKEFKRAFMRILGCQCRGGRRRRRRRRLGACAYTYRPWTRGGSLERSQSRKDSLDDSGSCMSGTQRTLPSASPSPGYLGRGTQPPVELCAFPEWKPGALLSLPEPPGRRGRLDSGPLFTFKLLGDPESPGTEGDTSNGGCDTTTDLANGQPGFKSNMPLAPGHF
The experiment in a line: Agonist tissue response, contraction of rat spleen. Particulars: read-out: Agonist Tissue Response (pD2) α1B (rat spleen) (converted). The format is biochemical.

In turn, `CCS(=O)(=O)Nc1cccc2c1OCCC2c1c[nH]cn1` (single isomer, unassigned; (+)) [Example 95, (+) N-[4-(1H-imidazol-4-yl)-3,4-dihydro-2H-chromen-8-yl]ethanesulfonamide] came in with a melting point of 223 to 226 °C. The Ki in data set [1] is 10 µM. The Ki in data set [2] turned out to be 10 µM. Further, the EC50 on α1B (rat spleen) was 28.2 µM.
